The source of these data is ChEMBL document CHEMBL3797055, “Glabridin-chalcone hybrid molecules: drug resistance reversal agent against clinical isolates of methicillin-resistant Staphylococcus aureus” (Medchemcomm, 2016).

A word on the MIC: it is the lowest concentration found to suppress growth.

Common to all, as to type: functional
Assay [1] has as its system Staphylococcus aureus. As to the kind of experiment: Antibacterial activity against clinical isolates of methicillin-resistant Staphylococcus aureus ST2071 by broth microdilution assay. Background: Broth dilution looks for growth in wells or tubes with falling amounts of substance.
Assay [2] relates to Staphylococcus aureus. As to the kind of experiment: Antibacterial activity against clinical isolates of methicillin-resistant Staphylococcus aureus P4650 by broth microdilution assay.
The test system of assay [3] is Staphylococcus aureus. The assay is described as follows: Antibacterial activity against clinical isolates of methicillin-resistant Staphylococcus aureus ST10342 by broth microdilution assay.
Assay [4] concerns Staphylococcus aureus. As to the kind of experiment: Antibacterial activity against Staphylococcus aureus MTCC 96 by broth microdilution assay.
Assay [5] has as its system Staphylococcus aureus. As to the kind of experiment: Antibacterial activity against clinical isolates of methicillin-resistant Staphylococcus aureus P4423 by broth microdilution assay.
The test system of assay [6] is Staphylococcus aureus. As to the kind of experiment: Antibacterial activity against clinical isolates of methicillin-resistant Staphylococcus aureus P4629 by broth microdilution assay.
Assay [7] deals with Staphylococcus aureus. The assay is described as follows: Antibacterial activity against clinical isolates of methicillin-resistant Staphylococcus aureus ST10760 by broth microdilution assay.

Structures are written as SMILES. Converted amounts (≈) assume the structure as drawn.

Turning to `COc1ccc([C@@H]2COc3c(cc(/C=C/C(=O)c4ccccc4)c4c3C=CC(C)(C)O4)C2)c(OC)c1`, the MIC in assay [1], in assay [2], in assay [3], in assay [4], in assay [5] and in assay [6] was 25 µg/mL (≈ 51.8 µM) throughout. In assay [7], this compound showed a minimum inhibitory concentration (MIC) of 25 µg/mL (≈ 51.8 µM).
As to `COc1ccc(C(=O)/C=C/c2cc([C@@H]3COc4c(ccc5c4C=CC(C)(C)O5)C3)c(OC)cc2OC)cc1`, the MIC in assay [1] is over 100 µg/mL; in assay [2] it was over 100 µg/mL; in assay [3], over 100 µg/mL; in assay [4] it was 50 µg/mL (≈ 97.5 µM); in assay [5], over 100 µg/mL; in assay [6], over 100 µg/mL. This compound also had an MIC in assay [7] of over 100 µg/mL.
In the case of `COc1cc(OC)c([C@@H]2COc3c(ccc4c3C=CC(C)(C)O4)C2)cc1/C=C/C(=O)c1ccccc1`, the MIC in assay [1], in assay [2], in assay [3], in assay [4], in assay [5] and in assay [6] was 25 µg/mL (≈ 51.8 µM) in each case. Moreover, the MIC in assay [7] was 25 µg/mL (≈ 51.8 µM).
Consider `COc1cc(OC)c([C@@H]2COc3c(ccc4c3C=CC(C)(C)O4)C2)cc1/C=C/C(=O)c1ccc[nH]1`, for which the MIC is 50 µg/mL (≈ 106 µM) in assay [1]; 50 µg/mL (≈ 106 µM) in assay [2]; 50 µg/mL (≈ 106 µM) in assay [3]; 25 µg/mL (≈ 53 µM) in assay [4]; 50 µg/mL (≈ 106 µM) in assay [5]; 50 µg/mL (≈ 106 µM) in assay [6]. Further, the MIC in assay [7] amounted to 50 µg/mL (≈ 106 µM).
For `COc1ccc([C@@H]2COc3c(cc(/C=C/C(=O)c4cc(OC)c(OC)c(OC)c4)c4c3C=CC(C)(C)O4)C2)c(OC)c1`, the MIC in assay [1], in assay [2], in assay [3], in assay [4], in assay [5] and in assay [6] was 25 µg/mL (≈ 43.7 µM) each time. In assay [7], the minimal inhibitory concentration (MIC) is 25 µg/mL (≈ 43.7 µM).
In the case of `COc1cccc(C(=O)/C=C/c2cc([C@@H]3COc4c(ccc5c4C=CC(C)(C)O5)C3)c(OC)cc2OC)c1`, the MIC is 50 µg/mL (≈ 97.5 µM) in assay [1]; 50 µg/mL (≈ 97.5 µM) in assay [2]; 50 µg/mL (≈ 97.5 µM) in assay [3]; 25 µg/mL (≈ 48.8 µM) in assay [4]; 50 µg/mL (≈ 97.5 µM) in assay [5]; 50 µg/mL (≈ 97.5 µM) in assay [6]. In assay [7], the MIC stood at 50 µg/mL (≈ 97.5 µM).
As for `COc1ccc(C(=O)/C=C/c2cc3c(c4c2OC(C)(C)C=C4)OC[C@@H](c2ccc(OC)cc2OC)C3)c(OC)c1`, the MIC in assay [1], in assay [2], in assay [3], in assay [4], in assay [5] and in assay [6] was over 100 µg/mL each time. The same compound had an MIC in assay [7] of over 100 µg/mL.
Regarding `COc1ccc([C@@H]2COc3c(ccc4c3C=CC(C)(C)O4)C2)c(OC)c1`, the MIC in assay [1], in assay [2], in assay [3], in assay [4], in assay [5] and in assay [6] was over 100 µg/mL in each case. The compound further had an MIC in assay [7] of over 100 µg/mL.
As to `COc1ccc(C(=O)/C=C/c2cc([C@@H]3COc4c(cc(/C=C/C(=O)c5ccc(OC)cc5OC)c5c4C=CC(C)(C)O5)C3)c(OC)cc2OC)c(OC)c1`, the MIC in assay [1], in assay [2], in assay [3], in assay [4], in assay [5] and in assay [6] was 50 µg/mL (≈ 68.2 µM) throughout. Moreover, the minimal inhibitory concentration (MIC) in assay [7] was 50 µg/mL (≈ 68.2 µM).
`COc1cccc(C(=O)/C=C/c2cc([C@@H]3COc4c(cc(/C=C/C(=O)c5cccc(OC)c5)c5c4C=CC(C)(C)O5)C3)c(OC)cc2OC)c1`: the MIC in assay [1], in assay [2], in assay [3], in assay [4], in assay [5] and in assay [6] was over 100 µg/mL in each case. Also, the MIC in assay [7] was over 100 µg/mL.
In the case of `COc1ccc(C(=O)/C=C/c2cc([C@@H]3COc4c(ccc5c4C=CC(C)(C)O5)C3)c(OC)cc2OC)c(OC)c1`, the MIC in assay [1] turned out to be 25 µg/mL (≈ 46.1 µM); in assay [2], 12.5 µg/mL (≈ 23 µM); in assay [3], 25 µg/mL (≈ 46.1 µM); in assay [4], 12.5 µg/mL (≈ 23 µM); in assay [5] it was 25 µg/mL (≈ 46.1 µM); in assay [6], 25 µg/mL (≈ 46.1 µM). The compound also returned a minimum inhibitory concentration (MIC) in assay [7] of 25 µg/mL (≈ 46.1 µM).
In the case of `COc1ccc(C(=O)/C=C/c2cc([C@@H]3COc4c(cc(/C=C/C(=O)c5ccc(OC)cc5)c5c4C=CC(C)(C)O5)C3)c(OC)cc2OC)cc1`, the MIC was over 100 µg/mL in assay [1]; over 100 µg/mL in assay [2]; over 100 µg/mL in assay [3]; 100 µg/mL (≈ 149 µM) in assay [4]; over 100 µg/mL in assay [5]; over 100 µg/mL in assay [6]. The minimal inhibitory concentration (MIC) in assay [7] is over 100 µg/mL.
On to `COc1cc(OC)c([C@@H]2COc3c(ccc4c3C=CC(C)(C)O4)C2)cc1/C=C/C(=O)c1ccccc1OC`, for which the minimum inhibitory concentration (MIC) in assay [1], in assay [2], in assay [3], in assay [4], in assay [5] and in assay [6] was over 100 µg/mL throughout. The compound also displayed an MIC in assay [7] of over 100 µg/mL.
On to `COc1ccc(C(=O)/C=C/c2cc3c(c4c2OC(C)(C)C=C4)OC[C@@H](c2ccc(OC)cc2OC)C3)cc1`, for which the MIC in assay [1], in assay [2], in assay [3], in assay [4], in assay [5] and in assay [6] was over 100 µg/mL each time. The compound also showed an MIC in assay [7] of over 100 µg/mL.
Regarding `COc1cc(OC)c([C@@H]2COc3c(ccc4c3C=CC(C)(C)O4)C2)cc1/C=C/C(=O)c1ccco1`, the MIC in assay [1], in assay [2], in assay [3], in assay [4], in assay [5] and in assay [6] was 25 µg/mL (≈ 52.9 µM) throughout. The compound also had an MIC in assay [7] of 25 µg/mL (≈ 52.9 µM).
With `COc1cc(OC)c([C@@H]2COc3c(ccc4c3C=CC(C)(C)O4)C2)cc1/C=C/C(=O)c1ccc(OC)c(OC)c1`, the MIC is over 100 µg/mL in assay [1]; over 100 µg/mL in assay [2]; over 100 µg/mL in assay [3]; 100 µg/mL (≈ 184 µM) in assay [4]; over 100 µg/mL in assay [5]; over 100 µg/mL in assay [6]. The same compound gave an MIC in assay [7] of over 100 µg/mL.
With `COc1cc(OC)c([C@@H]2COc3c(cc(/C=C/C(=O)c4ccccc4OC)c4c3C=CC(C)(C)O4)C2)cc1/C=C/C(=O)c1ccccc1OC`, the MIC in assay [1] is 100 µg/mL (≈ 149 µM); in assay [2] it was 100 µg/mL (≈ 149 µM); in assay [3], 100 µg/mL (≈ 149 µM); in assay [4] it was 50 µg/mL (≈ 74.3 µM); in assay [5], 100 µg/mL (≈ 149 µM); in assay [6], 100 µg/mL (≈ 149 µM). This compound displayed an MIC in assay [7] of 100 µg/mL (≈ 149 µM).
In the case of `COc1cc(OC)c([C@@H]2COc3c(ccc4c3C=CC(C)(C)O4)C2)cc1C=O`, the MIC in assay [1], in assay [2], in assay [3], in assay [4], in assay [5] and in assay [6] was over 100 µg/mL throughout. Further, in assay [7], the MIC is over 100 µg/mL.
